Data reported in the Deep4Chem optical property database.

Assay: solvent given as SMILES

c1ccc(/C(=C(\c2ccccc2)c2ccccc2-c2ccc(-c3ccccc3)cc2)c2ccccc2-c2ccc(-c3ccccc3)cc2)cc1
emission maximum (in C1CCOC1): 492 nm

CCOC(=O)c1c(-c2cc3ccc(OCC=C(C)C)cc3oc2=O)nn(-c2cccc(C)c2)c1C(=O)OCC
emission maximum (in ClCCl): 425 nm
